The text below walks through data of patent US5246959A, “Poly(aminoalkyl)aminocarbonyl aminoacyl aminodiol amino acid derivatives as anti-hypertensive agents” (G. D. Searle & Co., priority 1991, dated 1993).

Where a SMILES comes first, the peptide text is derived from it. [ ]: non-standard residue; d: D form. The star is where a group is joined. Sta = CC(C)C[C@H](N)[C@@H](O)CC(=O)O; Isovaleryl = CC(C)CC(=O)*

In general, IC50 refers to the concentration that gives 50% inhibition. Low readings indicate higher potency, high ones lower potency.

Test [1] has as its target T1, Human Renin (Homo sapiens, UniProt P00797).
T1 construct: purchased National Institute for Biological Standards, London
T1 sequence (P00797 67-406): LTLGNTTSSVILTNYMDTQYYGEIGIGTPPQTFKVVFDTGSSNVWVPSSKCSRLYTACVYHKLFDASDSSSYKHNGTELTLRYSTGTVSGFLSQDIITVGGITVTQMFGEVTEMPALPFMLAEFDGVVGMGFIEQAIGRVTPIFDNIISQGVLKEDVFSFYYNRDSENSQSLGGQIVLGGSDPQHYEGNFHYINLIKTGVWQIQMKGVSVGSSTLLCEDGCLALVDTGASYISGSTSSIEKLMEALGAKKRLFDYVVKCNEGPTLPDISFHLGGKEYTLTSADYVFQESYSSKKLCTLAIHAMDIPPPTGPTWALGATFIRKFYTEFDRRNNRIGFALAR
The experiment in a line: human renin inhibition test in vitro (angiotensin I by radioimmunoassay). In kind it is biochemical. As to conditions: pH 7.4, 37° C., two hours, human plasma. The method, then: Compounds of Formula I were evaluated as inhibitors of human renin in an in vitro assay, as follows: This human renin inhibition test has been previously described in detail [Papaioannou et al., Clinical and Experimental Hypertension, A7(9), 1243-1257 (1985)]. Human renin was obtained from the National Institute for Biological Standards, London. An incubation mixture was prepared containing in a total volume of 0.25 mL 100 mM Tris-acetate buffer at pH 7.4, 25×10^-6 Goldblatt units of renin, 0.05 mL of plasma from human volunteers taking oral contraceptives, 6.0 mM sodium EDTA, 2.4 mM phenylmethyl sulfonyl fluoride, 1.5 mM 8-hydroxyquinoline, 0.4 mg/mL BSA, and 0.024 mg/mL neomycin sulfate. This mixture was incubated for two hours at 37° C. in the presence or absence of renin inhibitors. The produced angiotensin I was determined by radioimmunoassay (New England Nuclear kit). Test compounds to be assayed were solubilized in DMSO and diluted with 100 mM Trisacetate buffer at pH 7.4 containing 0.5% bovine serum albumin (BSA) to the appropriate concentration. The final concentration of organic solvent in the reaction mixture was less than 1%. Control incubations at 37° C. were used to correct for effects of organic solvent on renin activity.

Test [2] relates to hog renin. As to conditions: after injection of hog renin into nephrectomized rats; cited from earlier work.
The test system of test [3] is pepsin. The note with it: cited from earlier work.
Test [4] has as its system renin. As to conditions: cited from earlier work.
Test [5] has as its system cathepsin D. The note with it: cited from earlier work.

As for `CC(C)C[C@H](NC(=O)[C@H](Cc1ccccc1)OC(=O)N(C)CCN(C)CCN(C)C)C(=O)N[C@@H](CC1CCCCC1)[C@@H](O)[C@@H](O)CC(C)C` [Example 10], the IC50 in test [1] stood at 2.4 nM. This lies in the single-digit nanomolar range.

`CC(C)C[C@H](O)[C@H](O)[C@H](CC1CCCCC1)NC(=O)[C@H](Cc1cnc[nH]1)NC(=O)[C@H](Cc1ccccc1)OC(=O)N(C)CCN(C)CCN(C)C` [Example 11, O-{N-[2-{N-[2-(N,N-dimethylamino)ethyl]-N-methylamino}-ethyl]-N-methylaminocarbonyl}-3-L-phenyllactyl-L-histidineamide of (2S,3R,4S)-2-amino-1-cyclohexyl-3,4-dihydroxy-6-methylheptane] yielded an IC50 in test [1] of 1 nM. On the same count and under the same terms, to `CC(C)C[C@H](O)[C@H](O)[C@H](CC1CCCCC1)NC(=O)[C@H](C)CNC(=O)[C@H](Cc1ccccc1)OC(=O)N(C)CCN(C)CCN(C)C` [Example 12] belongs 110 nM. As for `CC(C)CC(=O)N[C@H](C(=O)N[C@H](C(=O)N[C@@H](CC(C)C)[C@@H](O)CC(=O)N[C@@H](C)C(=O)N[C@@H](CC(C)C)[C@@H](O)CC(=O)O)C(C)C)C(C)C` [pepstatin] (Isovaleryl-VV[Sta]A[Sta]-OH), in test [2], the “reduce blood pressure in vivo” value is given as “found to reduce blood pressure in vivo”. Moreover, the inhibitor of pepsin entry in test [3] is listed as “inhibitor”. For the same compound, the inhibitor of renin result in test [4] is “inhibitor”. The “inhibitor of cathepsin D” value in test [5] is “inhibitor”.
